Experimental data taken from article PMC10988555, “Exploiting Co(III)-Cyclopentadienyl Complexes To Develop Anticancer Agents” (Inorganic Chemistry, 2024).

Experiments:
[1] = tested on: A2780 (human ovarian carcinoma) cell line; test: Antiproliferative activity, MTS assay, A2780; assay type: cell-based; settings: for IC50: 48 h exposure, MTS assay; for Selectivity index (SI), A2780: IC50 fibroblasts/IC50 A2780, values with * calculated taking fibroblast IC50 as 100 μM (minimal value)
Procedure: (§1) Human colorectal carcinoma cell line (HCT116), human breast cancer cell lines (MDA-MB-231 and MCF-7), and normal human primary dermal fibroblasts neonatal (PCS-201-010) cell line were grown in DMEM (Dulbecco’s modified Eagle’s medium) (Invitrogen Corp., Grand Island, NY, USA) supplemented with 10% (v/v) fetal bovine serum and 1% (v/v) antibiotic/antimycotic solution (Invitrogen Corp.). The human ovarian carcinoma (A2780) cell line was cultivated using RPMI (Roswell Park Memorial Institute) medium supplemented as in DMEM medium. The supplemented medium is named a complete medium. Cells were grown in an incubator with a humidified atmosphere at 5% (v/v) CO2 and 37 °C. All cell lines were purchased from ATCC (ATCC, American Type Culture Collection).
(§2) The evaluation of the cytotoxic potential of complexes 1–4 was obtained through in vitro measurements of the antiproliferative activity of these complexes. Cells were plated in 96-well plates at 7.5 × 10^4 cells/mL and incubated at 37 °C with 5% (v/v) CO2. After 24 h, the culture medium was replaced with fresh medium (100 μL) containing 0.1–50 μM of the different complexes and incubated for 48 h in tumor cell lines or containing 0.1–100 μM of the different complexes and incubated for 48 h in fibroblasts. […] The fibroblast cell line was used as a control of the cytotoxicity of the complexes for healthy cells. Cell viability was evaluated using Cell Titer 96 Aqueous Non-Radioactive Cell Proliferation Assay (Promega, Madison, WI, USA) using 3-(4,5-dimethylthiazol-2-yl)-5-(3-carboxymethoxyphenyl)-2-(4-sulfophenyl)-2H-tetrazolium inner salt (MTS), as described previously.[60] In metabolically active cells, enzymes present in the mitochondria catalyze a reaction in which NADPH/NADH is produced. These enzymes reduce the MTS reagent into a brownish product, Formazan, which can be quantified by measuring the absorbance at 490 nm. The quantity of formazan produced is directly proportional to the number of viable cells in the culture. This quantification was executed with a Biorad microplate reader Model 680 (Bio-Rad, Hercules, CA, USA). Half maximal inhibitory concentration (IC50) was calculated using GraphPad Prism 6 (GraphPadSoftware). We have calculated the ratio between the IC50 of fibroblasts and the IC50 of HCT116, A2780, MDA-MB-231, or MCF-7 cell lines for complexes 1–4 that was named herein as the Selectivity index (SI). To ensure the solubility of the complexes in all biological assays, complex solutions were freshly prepared and well solubilized before addition to the cells.

[2] = tested on: MDA-MB-231 (human breast cancer) cell line; test: Antiproliferative activity, MTS assay, MDA-MB-231; assay type: cell-based; settings: 48 h exposure
Procedure: as §1, §2

[3] = tested on: MCF-7 (human breast cancer) cell line; test: Antiproliferative activity, MTS assay, MCF-7; assay type: cell-based; settings: for IC50: 48 h exposure, MTS assay
Procedure: as §1, §2

[4] = tested on: normal human primary dermal fibroblasts; test: Antiproliferative activity, MTS assay, healthy fibroblasts; assay type: cell-based; settings: 48 h exposure, healthy human cells
Procedure: as §1, §2

[5] = Octanol-water partition coefficient, shake-flask method; assay type: physicochemical; settings: room temperature
Procedure: The lipophilicity of the CoCp complexes was estimated by the shake-flask method.[54] Before the assays, n-octanol was vigorously mixed with distilled water for 24 h at room temperature to promote solvent saturation of both phases. After separating the phases, the complexes were dissolved in the n-octanol phase to obtain solutions 1.0 × 10^–5 to 2.5 × 10^–4 M. Then, each solution was equilibrated with water for 4 h in a mechanical shaker, at a phase ratio of 2 mL n-octanol:2 mL water. Afterward, the aqueous and octanol layers were carefully separated by centrifugation (5000 rpm, 10 min), and the UV–vis absorption spectra of the complexes were recorded in the n-octanol phase. For each sample, the concentration was determined by using a calibration curve in n-octanol. All experiments were performed in triplicate for each complex, being the averages used for calculation purposes. Finally, the values of the partition coefficients were calculated by resorting to the following eq (eq 1): [drawing 1] 1 where logPoct/water represents the octanol–water partition coefficient, [complex]oct represents the concentration of the complex in the n-octanol phase, and [complex]water represents the concentration of the complex in the water phase.

[6] = tested on: A2780 cell line; test: Mitochondrial membrane potential (ΔΨM), JC-1 flow cytometry; assay type: cell-based, human; settings: A2780, IC50, 48 h, JC-1 red/green ratio vs DMSO
Procedure: ΔΨM was evaluated in the A2780 cell line using the JC-1 Mitochondrial Membrane Potential Assay Kit (Abnova, Taipei, Taiwan). Cells were seeded at a density of 2 × 10^5 cells/well in 6-well plates and incubated for 24 h. […] After an incubation of 48 h, the cells were washed with PBS 1×, detached with TE, and incubated with JC-1 in RPMI medium without phenol red + 5% (v/v) FBS for 20 min at 37 °C. The cells were then resuspended in the same medium and the ΔΨM was evaluated with the Attune acoustic focusing flow cytometer (ThermoFisher Scientific) and respective software.

[7] = tested on: A2780 cells; test: Cell cycle progression (PI flow cytometry, double thymidine block); assay type: cell-based, human; settings: A2780, 24 h; complexes at IC50, DOX 0.4 μM, cisplatin 5 μM
Procedure: The interference of the copper complexes 2–4 in the cell cycle progression was evaluated in A2780 cells, seeded in 6-weel plates, with a density of 2 × 10^5 cells/well, and incubated for 8 h at the same conditions as described above. After that incubation time, the cells were synchronized in early S-phase with a 2 mM thymidine solution (Sigma, St. Louis, USA) for a 16 h period. Media with thymidine was replaced by fresh media and, after 8 h, another 2 mM thymidine solution was added to the wells (double thymidine block) and incubated for 16 h. […] Cells were incubated for 9, 18, or 24 h, and, at each hour, the cells were treated with TE and centrifuges at 650 × g for 5 min at 4 °C. The pellet was resuspended in PBS 1× and centrifuged at 3000 × g for 5 min at 4 °C. Later, the pellet was resuspended in 100 μL of PBS 1×, and 1 mL of a solution of 80% (v/v) ethanol was gently added to the cells. Cells were stored at 4 °C for at least 12 h and then centrifuged for 10 min at 7500 × g at 4 °C, treated with 250 μL of 50 μg/mL RNase A, and incubated for 30 min at 37 °C. After incubation, 100 μL of PI (25 μg/mL) was added to the cells as well as 650 μL of PBS 1×. The DNA content was evaluated on an Attune Acoustic Focusing Flow Cytometer (ThermoFisher Scientific) and results were analyzed by the respective software.

Row | SMILES | IC50 [1] [µM] | Selectivity index (SI), A2780 [1] | IC50 [2] [µM] | IC50 [3] [µM] | IC50 [4] [µM] | logP (n-octanol/water partition coefficient) [5] | mitochondrial membrane potential (ΔΨM) change [6] | % of cells in the G2/M phase [7] [%] | Selectivity index (SI), MCF-7 ([3]; IC50 fibroblasts/IC50 MCF-7, value with * calculated taking fibroblast IC50 as 100 μM (minimal value))
1 | O=S(=O)([O-])C(F)(F)F.O=S(=O)([O-])C(F)(F)F.[Co+3].c1cc[cH-]c1.c1ccc(P(c2ccccc2)c2ccccc2)cc1.c1cnc2c(c1)ccc1cccnc12 [Complex 3, [Co(η^5-C5H5)(PPh3)(phen)][(CF3SO3)2]] | 6.2 ± 0.1 | 16.1* | > 50 | > 50 | > 100 | −0.28 ± 0.05 | low (without statistical significance) ΔΨM | 20.7 | 
2 | Cc1ccnc(-c2cc(C)ccn2)c1.O=S(=O)([O-])C(F)(F)F.O=S(=O)([O-])C(F)(F)F.[Co+3].c1cc[cH-]c1.c1ccc(P(c2ccccc2)c2ccccc2)cc1 [Complex 2, [Co(η^5-C5H5)(PPh3)(Me2bipy)][(CF3SO3)2]] | 6.1 ± 0.1 | 16.4* | > 50 | > 50 | > 100 | −0.56 ± 0.02 | low (without statistical significance) ΔΨM | 34.1 | 
3 | Nc1cc2cccnc2c2ncccc12.O=S(=O)([O-])C(F)(F)F.O=S(=O)([O-])C(F)(F)F.[Co+3].c1cc[cH-]c1.c1ccc(P(c2ccccc2)c2ccccc2)cc1 [Complex 4, [CoCp(PPh3)(NH2phen)][(CF3SO3)2]] | 4.7 ± 0.09 | 21.3* | > 50 | 10.2 ± 0.1 | > 100 | −0.22 ± 0.03 | an increase in ΔΨM was observed | 28 | 9.8*
